In PMC5218480 (PLoS ONE, 2017):

System: MV-4-11 cells
Assay: Gene expression microarray analysis (Affymetrix PrimeView) and GSEA
Type: cell-based, human
Set-up: RFU PODN (11730768_x_at) / Fold change /veh PODN (11730768_x_at) / RFU LINC00158 (11744669_a_at) / Fold change /veh LINC00158 (11744669_a_at) / RFU DUSP10 (11751237_a_at) / Fold change /veh DUSP10 (11751237_a_at) / RFU ID3 (11757404_x_at) / Fold change /veh ID3 (11757404_x_at) / RFU PLEKHG5 (11737974_s_at) / Fold change /veh PLEKHG5 (11737974_s_at) / RFU LRRC4B (11730491_at) / Fold change /veh LRRC4B (11730491_at) / RFU GIMAP4 (11747438_a_at) / Fold change /veh GIMAP4 (11747438_a_at) / RFU KRT8 (11758183_x_at) / Fold change /veh KRT8 (11758183_x_at) / RFU CNN1 (11734310_a_at) / Fold change /veh CNN1 (11734310_a_at) / RFU VPS37D (11726825_at) / Fold change /veh VPS37D (11726825_at) / RFU C10orf10 (11716522_x_at) / Fold change /veh C10orf10 (11716522_x_at) / RFU KIR2DL2 /// KIR2DL4 /// KIR2DL5A /// KIR2DL5B /// KIR2DS1 /// KIR2DS2 /// KIR2DS3 /// KIR2DS4 /// KIR3DL3 /// KIR3DL3 /// KIR3DS1 (11738374_at) / Fold change /veh KIR2DL2 /// KIR2DL4 /// KIR2DL5A /// KIR2DL5B /// KIR2DS1 /// KIR2DS2 /// KIR2DS3 /// KIR2DS4 /// KIR3DL3 /// KIR3DL3 /// KIR3DS1 (11738374_at) / RFU C1QL1 (11718748_at) / Fold change /veh C1QL1 (11718748_at) / RFU TMPRSS4 (11747572_a_at) / Fold change /veh TMPRSS4 (11747572_a_at) / RFU HAMP (11756126_x_at) / Fold change /veh HAMP (11756126_x_at) / RFU RNFT2 (11725882_a_at) / Fold change /veh RNFT2 (11725882_a_at) / RFU NR4A2 (11747474_a_at) / Fold change /veh NR4A2 (11747474_a_at) / RFU ABCC12 (11746883_a_at) / Fold change /veh ABCC12 (11746883_a_at) / RFU TMEM136 (11760407_x_at) / Fold change /veh TMEM136 (11760407_x_at) / RFU CLDN22 /// WWC2 (11732394_at) / Fold change /veh CLDN22 /// WWC2 (11732394_at) / RFU HLA-DPB1 (11760878_x_at) / Fold change /veh HLA-DPB1 (11760878_x_at) / RFU SPINT1 (11716480_a_at) / Fold change /veh SPINT1 (11716480_a_at) / RFU GAP43 (11754022_s_at) / Fold change /veh GAP43 (11754022_s_at) / RFU A4GNT (11735810_at) / Fold change /veh A4GNT (11735810_at) / RFU PRB3 (11715151_x_at) / Fold change /veh PRB3 (11715151_x_at) / RFU TUBB4B (11761932_at) / Fold change /veh TUBB4B (11761932_at) / RFU CAPN14 (11732068_a_at) / Fold change /veh CAPN14 (11732068_a_at) / RFU TMCC2 (11721928_a_at) / Fold change /veh TMCC2 (11721928_a_at) / RFU IRGQ (11745062_a_at) / Fold change /veh IRGQ (11745062_a_at) / RFU FAM174B (11720279_a_at) / Fold change /veh FAM174B (11720279_a_at) / RFU TMPRSS4 (11748680_a_at) / Fold change /veh TMPRSS4 (11748680_a_at) / RFU FAM212B (11763350_a_at) / Fold change /veh FAM212B (11763350_a_at) / RFU PLEKHG5 (11743358_a_at) / Fold change /veh PLEKHG5 (11743358_a_at) / RFU ZSCAN30 (11745921_a_at) / Fold change /veh ZSCAN30 (11745921_a_at) / RFU CMKLR1 (11741424_a_at) / Fold change /veh CMKLR1 (11741424_a_at) / RFU LOC101060620 /// MAPK8IP1 (11723275_at) / Fold change /veh LOC101060620 /// MAPK8IP1 (11723275_at) / RFU SPTSSB (11747773_x_at) / Fold change /veh SPTSSB (11747773_x_at) / RFU PRSS12 (11739890_at) / Fold change /veh PRSS12 (11739890_at) / RFU BIN1 (11741810_x_at) / Fold change /veh BIN1 (11741810_x_at) / RFU WNT11 (11732464_a_at) / Fold change /veh WNT11 (11732464_a_at) / RFU C10orf10 (11716521_a_at) / Fold change /veh C10orf10 (11716521_a_at) / RFU C5orf56 (11738089_at) / Fold change /veh C5orf56 (11738089_at) / RFU CYB561 (11721691_x_at) / Fold change /veh CYB561 (11721691_x_at) / RFU ANKRD19P (11752326_a_at) / Fold change /veh ANKRD19P (11752326_a_at) / RFU OR2T12 /// OR2T33 /// OR2T8 (11738714_s_at) / Fold change /veh OR2T12 /// OR2T33 /// OR2T8 (11738714_s_at) / RFU VCAN (11748164_a_at) / Fold change /veh VCAN (11748164_a_at) / RFU JSRP1 (11732532_at) / Fold change /veh JSRP1 (11732532_at) / RFU KRTAP10-11 (11738290_x_at) / Fold change /veh KRTAP10-11 (11738290_x_at) / RFU MYO3A (11730013_a_at) / Fold change /veh MYO3A (11730013_a_at) / RFU EBF3 (11725865_a_at) / Fold change /veh EBF3 (11725865_a_at) / RFU CAMK2N1 (11719241_x_at) / Fold change /veh CAMK2N1 (11719241_x_at) / RFU C5orf56 (11738088_a_at) / Fold change /veh C5orf56 (11738088_a_at) / RFU OLFML3 (11715873_a_at) / Fold change /veh OLFML3 (11715873_a_at) / RFU LOC100653217 /// NTM (11731650_a_at) / Fold change /veh LOC100653217 /// NTM (11731650_a_at) / RFU MAPK11 (11762145_a_at) / Fold change /veh MAPK11 (11762145_a_at) / RFU FIZ1 (11724087_x_at) / Fold change /veh FIZ1 (11724087_x_at) / RFU OASL (11726364_x_at) / Fold change /veh OASL (11726364_x_at) / RFU SOX15 (11748057_x_at) / Fold change /veh SOX15 (11748057_x_at) / RFU CD79A (11719716_a_at) / Fold change /veh CD79A (11719716_a_at) / RFU HIST1H1D (11736915_at) / Fold change /veh HIST1H1D (11736915_at) / RFU CASKIN2 (11723855_a_at) / Fold change /veh CASKIN2 (11723855_a_at) / RFU LOC730098 (11760151_x_at) / Fold change /veh LOC730098 (11760151_x_at) / RFU OR4N2 (11742367_at) / Fold change /veh OR4N2 (11742367_at) / RFU PRRT2 (11749266_a_at) / Fold change /veh PRRT2 (11749266_a_at) / RFU SNX32 (11753110_a_at) / Fold change /veh SNX32 (11753110_a_at) / RFU CDHR5 (11726645_a_at) / Fold change /veh CDHR5 (11726645_a_at) / RFU RCAN1 (11760418_a_at) / Fold change /veh RCAN1 (11760418_a_at) / RFU FAM167A (11723789_a_at) / Fold change /veh FAM167A (11723789_a_at) / RFU FAM26E (11764081_at) / Fold change /veh FAM26E (11764081_at) / RFU ISYNA1 (11749810_s_at) / Fold change /veh ISYNA1 (11749810_s_at) / RFU ACY1 (11761880_at) / Fold change /veh ACY1 (11761880_at) / RFU 11764098_at / Fold change /veh 11764098_at / RFU SAMD14 (11745864_x_at) / Fold change /veh SAMD14 (11745864_x_at) / RFU NPB (11741838_a_at) / Fold change /veh NPB (11741838_a_at) / RFU TMPRSS6 (11731388_a_at) / Fold change /veh TMPRSS6 (11731388_a_at) / RFU KRTAP10-2 (11738614_at) / Fold change /veh KRTAP10-2 (11738614_at) / RFU ARHGAP8 /// PRR5-ARHGAP8 (11727945_x_at) / Fold change /veh ARHGAP8 /// PRR5-ARHGAP8 (11727945_x_at) / RFU KRTAP5-7 /// NADSYN1 (11734609_at) / Fold change /veh KRTAP5-7 /// NADSYN1 (11734609_at) / RFU RASL12 (11751679_a_at) / Fold change /veh RASL12 (11751679_a_at) / RFU CDKN2B (11736163_a_at) / Fold change /veh CDKN2B (11736163_a_at) / RFU PRF1 (11729649_at) / Fold change /veh PRF1 (11729649_at) / RFU, ZNF638 /// ZNF638-IT1 / Fold change vs veh, ZNF638 /// ZNF638-IT1 / RFU, PANK3 / Fold change vs veh, PANK3 / RFU, SH3YL1 / Fold change vs veh, SH3YL1 / RFU, ZEB2 / Fold change vs veh, ZEB2 / RFU, NRIP1 / Fold change vs veh, NRIP1 / RFU, PTTG1IP / Fold change vs veh, PTTG1IP / RFU, CAPN2 / Fold change vs veh, CAPN2 / RFU, MED14 / Fold change vs veh, MED14 / RFU, SNORA58 / Fold change vs veh, SNORA58 / RFU, C1orf63 / Fold change vs veh, C1orf63 / RFU, LRRFIP1 / Fold change vs veh, LRRFIP1 / RFU, NDUFAF7 / Fold change vs veh, NDUFAF7 / RFU, SLC12A2 / Fold change vs veh, SLC12A2 / RFU, IBTK / Fold change vs veh, IBTK / RFU, ESF1 / Fold change vs veh, ESF1 / Fold change vs veh, TMEM50B / RFU, TAOK1 / Fold change vs veh, TAOK1 / RFU, ACBD3 / Fold change vs veh, ACBD3 / RFU, TMA16 / Fold change vs veh, TMA16 / RFU, RWDD3 / Fold change vs veh, RWDD3 / RFU, BCAT1 / Fold change vs veh, BCAT1 / RFU, EDEM3 / Fold change vs veh, EDEM3 / RFU, TMEM33 / Fold change vs veh, TMEM33 / RFU, WDR75 / Fold change vs veh, WDR75 / RFU, AHCTF1 / Fold change vs veh, AHCTF1 / RFU, TFRC / Fold change vs veh, TFRC / RFU, ZDHHC17 / Fold change vs veh, ZDHHC17 / RFU, NOM1 / Fold change vs veh, NOM1 / RFU, ARL8B / Fold change vs veh, ARL8B / RFU, ZBTB11 / Fold change vs veh, ZBTB11 / RFU, TAMM41 / Fold change vs veh, TAMM41 / RFU, KIAA1704 /// LOC100996395 / Fold change vs veh, KIAA1704 /// LOC100996395 / RFU, ING1 / Fold change vs veh, ING1 / RFU, TRMT61B / Fold change vs veh, TRMT61B / RFU, FUBP3 / Fold change vs veh, FUBP3 / RFU, TP53 / Fold change vs veh, TP53 / RFU, TNKS2 / Fold change vs veh, TNKS2 / RFU, ZFP14 / Fold change vs veh, ZFP14 / RFU, ACTR2 / Fold change vs veh, ACTR2 / RFU, PPP3R1 / Fold change vs veh, PPP3R1 / RFU, PIK3R1 / Fold change vs veh, PIK3R1 / RFU, HNRNPA1 / Fold change vs veh, HNRNPA1 / RFU, RNF170 / Fold change vs veh, RNF170 / RFU, ZNF28 / Fold change vs veh, ZNF28 / RFU, RNGTT / Fold change vs veh, RNGTT / RFU, OGT / Fold change vs veh, OGT / RFU, BRD1 / Fold change vs veh, BRD1 / RFU, MARS / Fold change vs veh, MARS / RFU, ZNF655 / Fold change vs veh, ZNF655 / RFU, FAHD1 / Fold change vs veh, FAHD1 / RFU, BDP1 / Fold change vs veh, BDP1 / RFU, LRRCC1 / Fold change vs veh, LRRCC1 / RFU, ARID1A / Fold change vs veh, ARID1A / RFU, ZNF146 / Fold change vs veh, ZNF146 / RFU, ZNF330 / Fold change vs veh, ZNF330 / RFU, GPN3 / Fold change vs veh, GPN3 / RFU, C9orf123 / Fold change vs veh, C9orf123 / RFU, N4BP2L2 / Fold change vs veh, N4BP2L2 / RFU, ARFIP1 / Fold change vs veh, ARFIP1 / RFU, FAM179B / Fold change vs veh, FAM179B / RFU, BCL10 / Fold change vs veh, BCL10 / RFU, UHRF1BP1L / Fold change vs veh, UHRF1BP1L / RFU, BET1 / Fold change vs veh, BET1 / RFU, CNOT2 / Fold change vs veh, CNOT2 / RFU, ZNF268 / Fold change vs veh, ZNF268 / Fold change vs veh, ZNF507 / RFU, DGCR2 / Fold change vs veh, DGCR2 / RFU, WDSUB1 / Fold change vs veh, WDSUB1 / Fold change vs veh, HSP90B1 /// MIR3652 / RFU, ADSS / Fold change vs veh, ADSS / RFU, GK / Fold change vs veh, GK / RFU, ZNF148 / Fold change vs veh, ZNF148 / RFU, TAF9 / Fold change vs veh, TAF9 / RFU, SLC1A5 / Fold change vs veh, SLC1A5 / RFU, SLMO2 / Fold change vs veh, SLMO2 / RFU, ABCC4 / Fold change vs veh, ABCC4 / RFU, LOC101060439 /// RAP1B / Fold change vs veh, LOC101060439 /// RAP1B / RFU, RFX7 / Fold change vs veh, RFX7 / RFU, GTPBP10 / Fold change vs veh, GTPBP10 / RFU, CNEP1R1 / Fold change vs veh, CNEP1R1 / RFU, BIVM-ERCC5 /// ERCC5 / Fold change vs veh, BIVM-ERCC5 /// ERCC5 / RFU, ILF3 / Fold change vs veh, ILF3 / RFU 11762660_at / Fold change /veh 11762660_at / RFU VCAN (11757783_s_at) / Fold change /veh VCAN (11757783_s_at) / RFU DDX43 (11728927_at) / Fold change /veh DDX43 (11728927_at) / RFU KRT8 (11758188_x_at) / Fold change /veh KRT8 (11758188_x_at) / RFU NKD1 (11759106_at) / Fold change /veh NKD1 (11759106_at) / RFU SRD5A1 (11742802_a_at) / Fold change /veh SRD5A1 (11742802_a_at) / RFU TPSAB1 /// TPSB2 (11721975_s_at) / Fold change /veh TPSAB1 /// TPSB2 (11721975_s_at) / RFU GSTM3 (11746129_a_at) / Fold change /veh GSTM3 (11746129_a_at) / RFU IL23R (11737362_x_at) / Fold change /veh IL23R (11737362_x_at) / RFU TMEM51 (11727254_a_at) / Fold change /veh TMEM51 (11727254_a_at) / RFU PIWIL2 (11732686_x_at) / Fold change /veh PIWIL2 (11732686_x_at) / RFU ORM1 (11744905_x_at) / Fold change /veh ORM1 (11744905_x_at) / RFU CCDC152 (11743942_at) / Fold change /veh CCDC152 (11743942_at) / RFU ECM1 (11717891_a_at) / Fold change /veh ECM1 (11717891_a_at) / RFU IL23R (11748794_a_at) / Fold change /veh IL23R (11748794_a_at) / RFU TNFAIP8L3 (11732012_x_at) / Fold change /veh TNFAIP8L3 (11732012_x_at) / RFU MBOAT4 (11741988_at) / Fold change /veh MBOAT4 (11741988_at) / RFU 11764193_at / Fold change /veh 11764193_at / RFU TMEM53 (11763286_at) / Fold change /veh TMEM53 (11763286_at) / RFU MAGEB2 (11727129_at) / Fold change /veh MAGEB2 (11727129_at) / RFU TMEM200A (11744735_a_at) / Fold change /veh TMEM200A (11744735_a_at) / RFU CCDC152 (11751479_a_at) / Fold change /veh CCDC152 (11751479_a_at) / RFU FAM211A (11726209_a_at) / Fold change /veh FAM211A (11726209_a_at) / RFU RGS16 (11746705_a_at) / Fold change /veh RGS16 (11746705_a_at) / RFU VCAN (11755009_s_at) / Fold change /veh VCAN (11755009_s_at) / RFU RHOB (11743442_s_at) / Fold change /veh RHOB (11743442_s_at) / RFU RGS16 (11720943_a_at) / Fold change /veh RGS16 (11720943_a_at) / RFU RGS16 (11720944_at) / Fold change /veh RGS16 (11720944_at) / RFU, VPS4B / Fold change vs veh, VPS4B / RFU, CREB1 / Fold change vs veh, CREB1 / RFU, DNAJC13 / Fold change vs veh, DNAJC13 / RFU, GNAQ / Fold change vs veh, GNAQ / RFU, CDK5R1 / Fold change vs veh, CDK5R1 / RFU, ZRANB3 / Fold change vs veh, ZRANB3 / RFU, CUL4A / Fold change vs veh, CUL4A / RFU, CCNY / Fold change vs veh, CCNY / RFU, UFL1 / Fold change vs veh, UFL1 / RFU, COG3 / Fold change vs veh, COG3 / RFU, DIAPH2 / Fold change vs veh, DIAPH2 / RFU, SKA2 / Fold change vs veh, SKA2 / RFU, AFF3 / Fold change vs veh, AFF3 / RFU, LMF1 / Fold change vs veh, LMF1 / RFU, IPO11 / Fold change vs veh, IPO11 / RFU, DFFB / Fold change vs veh, DFFB / RFU, FOXP1 / Fold change vs veh, FOXP1 / RFU, CARD8 / Fold change vs veh, CARD8 / RFU, STRN3 / Fold change vs veh, STRN3 / RFU, ADK / Fold change vs veh, ADK / RFU, RASSF2 / Fold change vs veh, RASSF2 / RFU, WIPF1 / Fold change vs veh, WIPF1 / RFU, LARP1B / Fold change vs veh, LARP1B / RFU, RASA1 / Fold change vs veh, RASA1 / RFU, RB1 / Fold change vs veh, RB1 / RFU, PPFIA1 / Fold change vs veh, PPFIA1 / RFU, MAT2A / Fold change vs veh, MAT2A / RFU, CCT5 / Fold change vs veh, CCT5 / RFU, WDR92 / Fold change vs veh, WDR92 / RFU, CUX1 / Fold change vs veh, CUX1 / RFU, TTC7A / Fold change vs veh, TTC7A / RFU, TMEM135 / Fold change vs veh, TMEM135 / RFU, DEPTOR / Fold change vs veh, DEPTOR / RFU, CPM / Fold change vs veh, CPM / RFU, DNAJB6 / Fold change vs veh, DNAJB6 / RFU, CACNA2D3 / Fold change vs veh, CACNA2D3 / RFU, DTX4 / Fold change vs veh, DTX4 / RFU, TFCP2 / Fold change vs veh, TFCP2 / RFU, GMCL1 /// GMCL1P1 / Fold change vs veh, GMCL1 /// GMCL1P1 / RFU, AEBP2 / Fold change vs veh, AEBP2 / RFU, SNHG1 /// SNORD22 /// SNORD25 /// SNORD26 /// SNORD27 /// SNORD28 /// SNORD29 /// SNORD31 / Fold change vs veh, SNHG1 /// SNORD22 /// SNORD25 /// SNORD26 /// SNORD27 /// SNORD28 /// SNORD29 /// SNORD31 / Fold change (Aza/veh), C12orf56 (ProbeSet 11735607_a_at) / Fold change (ACY-1035/veh), C12orf56 (ProbeSet 11735607_a_at) / Fold change (Aza/veh), FGFR1OP (ProbeSet 11751329_s_at) / Fold change (ACY-1035/veh), FGFR1OP (ProbeSet 11751329_s_at) / Fold change (Aza/veh), VPS36 (ProbeSet 11739960_a_at) / Fold change (ACY-1035/veh), VPS36 (ProbeSet 11739960_a_at) / RFU SYPL1 (11715823_x_at) / Fold change /veh SYPL1 (11715823_x_at) / RFU IGFBP7 (11715501_s_at) / Fold change /veh IGFBP7 (11715501_s_at) / RFU REEP3 (11722064_at) / Fold change /veh REEP3 (11722064_at) / RFU IGLL1 (11728026_x_at) / Fold change /veh IGLL1 (11728026_x_at): dose or concentration left out as unconfirmed
Details: MV-4-11 cells, 48 hours

## Nc1ccc(-c2cccs2)cc1NC(=O)c1ccc2c(c1)cc(C1CC1)n2CCN1CCOCC1 [ACY-1035]
  Fold change /veh TMPRSS4 (11748680_a_at): 1.05
